Activity calls are given as the source filed them. The calls are words filed in the database; no cut-off is given here.
What was measured:
HeLa [1] = assay: Antiproliferative activity against human HeLa cells by MTT assay; assay type: functional, cell-based
A549 [2] = assay: Induction of apoptosis in human A549 cells assessed as necrotic cells incubated for 24 hrs by Annexin V/PI staining based flow cytometry analysis (reference value: 1.35 %); assay type: functional
A549 [3] = assay: Inhibition of colony formation in human A549 cells assessed as clone formation rate relative to control; assay type: functional; design: concentration or dose not given beside the values
HeLa [4] = assay: Inhibition of colony formation in human HeLa cells assessed as clone formation rate relative to control; assay type: functional; design: scale not given: the % may be the effect or the level left
A549 [5] = assay: cells; conditions: Homo sapiens
Description: Antiproliferative activity against human A549 cells by MTT assay

HeLa [6] = assay: Induction of apoptosis in human HeLa cells assessed as nectrotic cells by Annexin V/PI staining based flow cytometry analysis (reference value: 0.782 %); assay type: functional
HeLa [7] = assay: Induction of apoptosis in human HeLa cells assessed as early apoptotic cells by Annexin V/PI staining based flow cytometry analysis (reference value: 1.72 %); assay type: functional
HeLa [8] = assay: Induction of apoptosis in human HeLa cells assessed as viable cells by Annexin V/PI staining based flow cytometry analysis (reference value: 91.0 %); assay type: functional
HeLa [9] = assay: Induction of apoptosis in human HeLa cells assessed as late apoptotic cells by Annexin V/PI staining based flow cytometry analysis (reference value: 6.46 %); assay type: functional
A549 [10] = assay: Induction of apoptosis in human A549 cells assessed as late apoptotic cells incubated for 24 hrs by Annexin V/PI staining based flow cytometry analysis (reference value: 5.03 %); assay type: functional
A549 [11] = assay: Induction of apoptosis in human A549 cells assessed as viable cells incubated for 24 hrs by Annexin V/PI staining based flow cytometry analysis (reference value: 91.6 %); assay type: functional
A549 [12] = assay: Induction of apoptosis in human A549 cells assessed as early apoptotic cells incubated for 24 hrs by Annexin V/PI staining based flow cytometry analysis (reference value: 1.17 %); assay type: functional
[13] = target: T1, Histone-lysine N-methyltransferase EZH2 (Homo sapiens, UniProt Q15910); assay: Inhibition of EZH2 (unknown origin)
Target sequence in this assay (Q15910 whole entry): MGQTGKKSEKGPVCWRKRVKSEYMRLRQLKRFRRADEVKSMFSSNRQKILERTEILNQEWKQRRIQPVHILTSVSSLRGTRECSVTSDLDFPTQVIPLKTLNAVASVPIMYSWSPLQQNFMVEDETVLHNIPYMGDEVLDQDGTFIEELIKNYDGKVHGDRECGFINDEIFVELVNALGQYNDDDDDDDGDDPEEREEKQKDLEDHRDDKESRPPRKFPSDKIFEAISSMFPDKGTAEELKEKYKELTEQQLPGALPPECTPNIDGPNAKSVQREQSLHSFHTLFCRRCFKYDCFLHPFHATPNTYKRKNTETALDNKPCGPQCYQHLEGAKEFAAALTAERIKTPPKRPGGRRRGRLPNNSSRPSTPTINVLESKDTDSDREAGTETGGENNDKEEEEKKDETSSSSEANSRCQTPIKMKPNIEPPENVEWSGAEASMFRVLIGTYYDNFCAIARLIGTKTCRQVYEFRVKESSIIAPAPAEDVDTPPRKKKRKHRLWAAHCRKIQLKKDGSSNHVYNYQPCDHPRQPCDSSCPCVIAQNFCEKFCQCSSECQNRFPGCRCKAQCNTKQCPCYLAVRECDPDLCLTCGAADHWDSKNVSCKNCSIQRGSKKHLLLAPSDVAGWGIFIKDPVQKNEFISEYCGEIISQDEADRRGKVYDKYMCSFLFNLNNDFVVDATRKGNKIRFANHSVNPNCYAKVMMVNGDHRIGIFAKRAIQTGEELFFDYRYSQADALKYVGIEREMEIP

[14] = target: Histone-lysine N-methyltransferase EZH2 (Homo sapiens, UniProt Q15910, Y641F); assay: Inhibition of EZH2 Y641F mutant (unknown origin)
HeLa [15] = assay: Inhibition of cell migration in human HeLa cells assessed as reduction of cell scratch width incubated for 24 hrs; assay type: functional, cell-based
[16] = target: T1, Histone-lysine N-methyltransferase EZH2; assay: Inhibition of EZH2 in human A549 cells assessed as reduction in H3K27me3 expression level at 3 uM incubated for 72 hrs by Western blotting analysis; assay type: cell-based
Target sequence in this assay (Q15910 whole entry, looked up): as the sequence (Q15910 whole entry) above

[17] = target: T1, Histone-lysine N-methyltransferase EZH2; assay: Inhibition of EZH2 in human A549 cells assessed as reduction in H3K27me3 expression level incubated for 72 hrs by Western blotting analysis; assay type: cell-based; conditions: dose 1-3 µM
Target sequence in this assay (Q15910 whole entry, looked up): as the sequence (Q15910 whole entry) above

Chain of Histone-lysine N-methyltransferase EZH2 (Homo sapiens, UniProt Q15910, Y641F) (Q15910 whole entry Y641F): as the sequence (Q15910 whole entry) above, with Y641F counted along it

Row | IC50 (HeLa [1]) [nM] | IC50 (A549 [5]) [nM] | IC50 [13] [nM] | IC50 [14] [nM] | inhibition [16] | inhibition [17] | SMILES | Activity (A549 [2]) [%] | Activity (A549 [3]) [%] | Activity (HeLa [4]) [%] | Activity (HeLa [6]) [%] | Activity (HeLa [7]) [%] | Activity (HeLa [8]) [%] | Activity (HeLa [9]) [%] | Activity (A549 [10]) [%] | Activity (A549 [11]) [%] | Activity (A549 [12]) [%] | inhibition (HeLa [15])
1 | 27700 | 15800 | – | – | – | – | CCN(c1cc(-c2ccc(CN3CCOCC3)cc2)cc(C(=O)NCc2c(C)cc(C)[nH]c2=O)c1C)C1CCOCC1 [TAZEMETOSTAT] | 10.8 | 45 | 47 | 1.2 | 5.21 | 74 | 19.6 | 52.6 | 34.3 | 2.3 | –
2 | 47400 | 24300 | 3.78 | 8.54 | – | – | Cc1cc(C)c(CNC(=O)c2cc(-c3cccnc3)cc3[nH]c(=O)ccc23)c(=O)[nH]1 | – | – | – | – | – | – | – | – | – | – | –
3 | 18400 | 12300 | 0.94 | 5.43 | Active | – | COc1cc(-c2cc(C(=O)NCc3c(C)cc(C)[nH]c3=O)c3ccc(=O)[nH]c3c2)ccc1F | 0.8 | 46 | 39 | 4.32 | 5.85 | 58.5 | 33.3 | 17.3 | 78.2 | 3.63 | Active
4 | > 50000 | 30300 | 7.42 | 12.2 | – | – | Cc1cc(C)c(CNC(=O)c2cc(-c3cccc4ccccc34)cc3[nH]c(=O)ccc23)c(=O)[nH]1 | – | – | – | – | – | – | – | – | – | – | –
5 | 29400 | 13400 | 1.67 | 7.4 | – | – | Cc1cc(C)c(CNC(=O)c2cc(-c3ccc(-c4ccccc4)cc3)cc3[nH]c(=O)ccc23)c(=O)[nH]1 | 3.6 | 42 | – | – | – | – | – | 47.3 | 38.4 | 10.1 | –
6 | > 50000 | 35700 | 4.21 | 10.4 | – | – | COc1c(C)cccc1-c1cc(C(=O)NCc2c(C)cc(C)[nH]c2=O)c2ccc(=O)[nH]c2c1 | – | – | – | – | – | – | – | – | – | – | –
7 | > 50000 | 20600 | 6.63 | 7.48 | – | – | COc1ccc2cc(-c3cc(C(=O)NCc4c(C)cc(C)[nH]c4=O)c4ccc(=O)[nH]c4c3)ccc2c1 | – | – | – | – | – | – | – | – | – | – | –
8 | 46300 | > 50000 | 8.21 | 9.41 | – | – | Cc1cc(C)c(CNC(=O)c2cc(-c3ccc(Oc4ccccc4)cc3)cc3[nH]c(=O)ccc23)c(=O)[nH]1 | – | – | – | – | – | – | – | – | – | – | –
9 | 25300 | 11000 | 1.01 | 5.68 | – | Dose-Dependent Effect | Cc1cc(C)c(CNC(=O)c2cc(-c3ccc(Br)cc3)cc3[nH]c(=O)ccc23)c(=O)[nH]1 | 1.07 | 40 | 45 | – | 4.72 | – | 16.5 | 51.8 | 34.7 | 12.4 | Active
10 | > 50000 | 38300 | 5.84 | 8.87 | – | – | COc1cccc(OC)c1-c1cc(C(=O)NCc2c(C)cc(C)[nH]c2=O)c2ccc(=O)[nH]c2c1 | – | – | – | – | – | – | – | – | – | – | –
11 | 20400 | 12800 | 2.12 | 6.45 | – | – | Cc1cc(C)c(CNC(=O)c2cc(-c3ccc(C(=O)O)cc3)cc3[nH]c(=O)ccc23)c(=O)[nH]1 | – | 58 | 49 | – | – | – | – | – | – | – | –
12 | > 50000 | > 50000 | 8.23 | 11.7 | – | – | Cc1cc(C)c(CNC(=O)c2cc(-c3ccc4ncccc4c3)cc3[nH]c(=O)ccc23)c(=O)[nH]1 | – | – | – | – | – | – | – | – | – | – | –
13 | 43200 | 19600 | 6.27 | 10.3 | – | – | Cc1cc(C)c(CNC(=O)c2cc(-c3ccccc3)cc3[nH]c(=O)ccc23)c(=O)[nH]1 | – | – | – | – | – | – | – | – | – | – | –
14 | 33800 | 27600 | 2.74 | 7.76 | – | – | Cc1ccc(-c2cc(C(=O)NCc3c(C)cc(C)[nH]c3=O)c3ccc(=O)[nH]c3c2)cc1 | – | – | – | – | – | – | – | – | – | – | –

— ChEMBL document CHEMBL5634165, “Design, synthesis and activity evaluation of quinolinone derivatives as EZH2 inhibitors” (Bioorg Med Chem Lett, 2024)
